Reference: BindingDB's records for doi:10.1016/j.bmcl.2006.01.017 (Celera, 2006)

Legend:
Serine protease 1 = target: T1, Serine protease 1 (Bos taurus, UniProt P00760); assay: Enzyme Inhibition Assay; settings: pH 7.4; 22 °C
T1 sequence (P00760 whole entry): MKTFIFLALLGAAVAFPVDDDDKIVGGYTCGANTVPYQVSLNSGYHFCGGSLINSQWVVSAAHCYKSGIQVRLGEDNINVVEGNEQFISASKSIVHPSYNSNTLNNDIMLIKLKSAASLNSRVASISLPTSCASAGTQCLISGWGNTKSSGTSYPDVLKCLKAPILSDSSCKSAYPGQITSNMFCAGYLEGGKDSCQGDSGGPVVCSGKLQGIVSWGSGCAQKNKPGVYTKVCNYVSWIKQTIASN
Procedure: (§1) The apparent Ki values were then calculated according to the Cheng-Prusoff equation: Ki = IC50/1 + [S]/Km.

Coagulation factor VII = target: T2, Coagulation factor VII (Homo sapiens, UniProt P08709); assay: Enzyme Inhibition Assay; settings: pH 7.4; 22 °C
T2 sequence (P08709 whole entry): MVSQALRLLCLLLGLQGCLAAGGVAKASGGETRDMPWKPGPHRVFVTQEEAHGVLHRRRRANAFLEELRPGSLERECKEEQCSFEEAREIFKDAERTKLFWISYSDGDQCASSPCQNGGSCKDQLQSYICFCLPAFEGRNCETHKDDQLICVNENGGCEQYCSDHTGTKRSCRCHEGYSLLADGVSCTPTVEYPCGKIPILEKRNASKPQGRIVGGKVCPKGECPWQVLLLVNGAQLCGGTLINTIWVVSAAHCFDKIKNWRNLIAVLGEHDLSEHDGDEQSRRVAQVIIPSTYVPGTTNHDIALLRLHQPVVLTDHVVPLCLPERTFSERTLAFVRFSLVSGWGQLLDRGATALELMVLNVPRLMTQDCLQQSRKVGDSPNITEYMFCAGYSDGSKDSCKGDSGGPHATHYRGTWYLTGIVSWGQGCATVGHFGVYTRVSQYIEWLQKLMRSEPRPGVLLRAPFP
Procedure: as §1

SMILES | Ki (Serine protease 1) [µM] | Ki (Coagulation factor VII) [µM]
Nc1ccc2[nH]c(-c3cc(CC(=O)O)cc(-c4cccc([N+](=O)[O-])c4)c3O)nc2n1 [2-(3-{5-amino-1H-imidazo[4,5-b]pyridin-2-yl}-4-hydroxy-5-(3-nitrophenyl)phenyl)acetic acid] | > 150 | –
CS(=O)(=O)c1cccc(-c2cc(CC(=O)O)cc(-c3cc4nc(N)ccc4[nH]3)c2O)c1 [2-(3-{5-amino-1H-pyrrolo[3,2-b]pyridin-2-yl}-4-hydroxy-5-(3-methanesulfonylphenyl)phenyl)acetic acid] | – | 7.4
NC(=O)Nc1cccc(-c2cc(CC(=O)O)cc(-c3cc4nc(N)ccc4[nH]3)c2O)c1 [2-(3-{5-amino-1H-pyrrolo[3,2-b]pyridin-2-yl}-5-[3-(carbamoylamino)phenyl]-4-hydroxyphenyl)acetic acid] | – | 12
CN(C)CCNC(=O)NCc1cccc(-c2cc(CC(=O)O)cc(-c3cc4nc(N)ccc4[nH]3)c2O)c1 [2-(3-{5-amino-1H-pyrrolo[3,2-b]pyridin-2-yl}-5-{3-[({[2-(dimethylamino)ethyl]carbamoyl}amino)methyl]phenyl}-4-hydroxyphenyl)acetic acid] | – | 1.4
O=C(O)Cc1cc(-c2cccc([N+](=O)[O-])c2)c(O)c(-c2nc3ccccc3[nH]2)c1 [2-[3-(1H-1,3-benzodiazol-2-yl)-4-hydroxy-5-(3-nitrophenyl)phenyl]acetic acid] | > 150 | –
